SMILES strings stand for the structures.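 96-well plates; 48 h exposure; 5 concentrations. Endpoints by linear interpolation between flanking doses. Not reached: highest tested concentration assigned. GI50 is the concentration that inhibits growth by half.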 The source made the active and inactive calls. No stated cut-off is given here; in the data, active = GI50 up to about 1.1 µM and inactive = higher. Where a SMILES comes first, the peptide text is derived from it. [ ]: non-standard residue; d: D form. The star is where a group is joined. Bn2Val = CC(C)[C@@H](C(=O)*)N(Cc1ccccc1)Cc1ccccc1; NHPiperonyl = c1cc2c(cc1CN*)OCO2; NMeV = CN[C@H](C(=O)O)C(C)C; dNMeA = CN[C@H](C)C(=O)O

Consider twelve compounds from ChEMBL document CHEMBL1201862, “PubChem BioAssay data set” (2004).

Test systems include SN12C; EKVX; HCT-15; IGROV-1; SW-620; M14; MDA-MB-231; KM12; CAKI-1; 786-0; NCI-H23; NCI-H460; SF-539; SK-MEL-2; LOX IMVI; UACC-62; OVCAR-3; MDA-N; MDA-MB-435.
Holding throughout (assay): NCI-60 cell line screen, 48 h

As for `CC(C)(C)CNC(=O)NCn1cc(-c2ccccc2)nn1`, the GI50 with SN12C is > 100 µM (inactive); in the assay with EKVX, > 100 µM (inactive); with HCT-15 it was above 100 µM; with IGROV-1 it was > 100 µM (inactive); with SW-620 it was > 100 µM (inactive); in the assay with M14, > 100 µM (inactive). Besides, the GI50 with MDA-MB-231, with KM12, in the assay with CAKI-1, in the assay with 786-0, in the assay with NCI-H23 and with NCI-H460 was > 100 µM (inactive) throughout. The GI50 with SF-539, with SK-MEL-2 and with LOX IMVI was > 100 µM (inactive) throughout.
`N#CCCN(CCC#N)c1ccc(/C=C2\N=C(CN3C(=O)c4ccccc4C3=O)OC2=O)cc1`: the GI50 was > 100 µM (inactive) in the assay on SN12C; > 100 µM (inactive) in the assay with EKVX; > 100 µM (inactive) in the assay with UACC-62; above 100 µM in the assay with HCT-15; > 100 µM (inactive) with IGROV-1; > 100 µM (inactive) with OVCAR-3. Besides, the GI50 in the assay on SW-620, in the assay with M14, in the assay with KM12, with CAKI-1, with 786-0 and with NCI-H460 was > 100 µM (inactive) each time. Besides, the GI50 in the assay on SF-539, with SK-MEL-2 and in the assay on LOX IMVI was > 100 µM (inactive) throughout.
With `CN(C)CCNC(=O)c1ccc(C(=O)NCCN(C)C)c2nc3ccccc3cc12`, the GI50 in the assay on SN12C was 0.83 µM (active); in the assay on EKVX it was 1.81 µM (inactive); in the assay with UACC-62 it was 1.15 µM (inactive); with HCT-15 it was 2.96 µM; in the assay on IGROV-1 it was 1.62 µM (inactive); in the assay on OVCAR-3, 1.77 µM (inactive). Moreover, the GI50 in the assay on SW-620 was 0.361 µM (active); in the assay with M14, 1.39 µM (inactive); with KM12, 0.792 µM (active); with CAKI-1, 1.48 µM (inactive); in the assay on 786-0 it was 0.692 µM (active); in the assay with NCI-H23, 1.71 µM (inactive). The GI50 with NCI-H460 is 0.384 µM (active); in the assay on SF-539, 0.378 µM (active); with SK-MEL-2, 1.28 µM (inactive); in the assay with LOX IMVI, 0.519 µM (active).
As to `S=C(c1c[nH]c2ccccc12)N1CCN(Cc2ccccc2)CC1`, the GI50 in the assay with MDA-N was 15.6 µM (inactive); with SN12C, 16.5 µM (inactive); in the assay on EKVX, 18 µM (inactive); in the assay with UACC-62, 15.6 µM (inactive); with HCT-15, 13.6 µM; in the assay on IGROV-1, 12.7 µM (inactive). Also, the GI50 with OVCAR-3 was 14.4 µM (inactive); in the assay on SW-620 it was 17.8 µM (inactive); in the assay on M14, 14 µM (inactive); in the assay with MDA-MB-231, 17 µM (inactive); with KM12, 17.2 µM (inactive); in the assay on CAKI-1, 20.1 µM (inactive). In addition, the GI50 is 15.5 µM (inactive) with MDA-MB-435; 15.7 µM (inactive) in the assay on 786-0; 19.3 µM (inactive) with NCI-H23; 25.2 µM (inactive) with NCI-H460; 18.6 µM (inactive) in the assay with SF-539; 18.9 µM (inactive) with SK-MEL-2. In the assay with LOX IMVI, the GI50 is 15.7 µM (inactive).
For `C=C[C@@H]1OC(=O)O[C@H]1CO`, the GI50 was > 100 µM (inactive) in the assay with MDA-N; > 100 µM (inactive) in the assay on SN12C; > 100 µM (inactive) in the assay with EKVX; > 100 µM (inactive) with UACC-62; above 100 µM in the assay with HCT-15; > 100 µM (inactive) in the assay on IGROV-1. Besides, the GI50 in the assay on OVCAR-3, in the assay on SW-620, with M14, in the assay on MDA-MB-231, with KM12 and with MDA-MB-435 was > 100 µM (inactive) each time. Further, the GI50 in the assay on 786-0, in the assay with NCI-H23, in the assay on SK-MEL-2 and in the assay with LOX IMVI was > 100 µM (inactive) throughout.
On to `O=C1c2ccccc2C2(O)Nc3cc(O)ccc3C12O` (centres undefined), for which the GI50 with SN12C was > 100 µM (inactive); in the assay on EKVX it was > 100 µM (inactive); in the assay with UACC-62, > 100 µM (inactive); in the assay with HCT-15, above 100 µM; in the assay with IGROV-1 it was > 100 µM (inactive); in the assay with OVCAR-3 it was > 100 µM (inactive). Also, the GI50 in the assay with SW-620, in the assay with M14, in the assay on KM12, in the assay with CAKI-1, with 786-0 and with NCI-H23 was > 100 µM (inactive) throughout. The GI50 in the assay on NCI-H460, in the assay with SF-539, in the assay with SK-MEL-2 and in the assay with LOX IMVI was > 100 µM (inactive) throughout.
As for `O=C1C2c3[nH]c4ccccc4c3C3CCCCCC3C2C(=O)N1c1ccccc1` (centres undefined), the GI50 in the assay with SN12C is 9.71 µM (inactive); with EKVX, > 68.1 µM (inactive); with UACC-62, > 63.7 µM (inactive); with HCT-15, above 47 µM; in the assay on IGROV-1, 21.8 µM (inactive); in the assay on OVCAR-3 it was 16.3 µM (inactive). The GI50 in the assay on SW-620 was 24.8 µM (inactive); in the assay with M14 it was 15.9 µM (inactive); in the assay on KM12, > 100 µM (inactive); in the assay on CAKI-1 it was 17.4 µM (inactive); with 786-0, 44.9 µM (inactive); with NCI-H23, > 49.8 µM (inactive). The GI50 with NCI-H460 is 11.3 µM (inactive); in the assay with SF-539 it was 14.4 µM (inactive); in the assay with SK-MEL-2, 22.9 µM (inactive); in the assay on LOX IMVI, 14.9 µM (inactive).
As for `COCc1c(CO)cnc(C)c1OC1OC(CO)C(O)C(O)C1O` (centres undefined), the GI50 in the assay on SN12C was > 100 µM (inactive); with EKVX it was > 100 µM (inactive); in the assay with UACC-62, > 100 µM (inactive); in the assay with HCT-15, above 100 µM; in the assay with IGROV-1, > 100 µM (inactive); in the assay on OVCAR-3, > 100 µM (inactive). Besides, the GI50 in the assay with SW-620, in the assay on M14, in the assay with KM12, with CAKI-1, with 786-0 and with NCI-H460 was > 100 µM (inactive) each time. Also, the GI50 with SF-539, in the assay on SK-MEL-2 and in the assay with LOX IMVI was > 100 µM (inactive) in each case.
Regarding `CC(=O)OCc1cc(OC(C)=O)cnc1COC(C)=O`, the GI50 with SN12C was > 100 µM (inactive); in the assay with EKVX, > 100 µM (inactive); in the assay on UACC-62 it was > 100 µM (inactive); with HCT-15 it was above 100 µM; in the assay on IGROV-1, > 100 µM (inactive); in the assay on OVCAR-3 it was > 100 µM (inactive). The GI50 in the assay on SW-620, in the assay with M14, in the assay on KM12, with CAKI-1, in the assay with 786-0 and with NCI-H23 was > 100 µM (inactive) in each case. Also, the GI50 with NCI-H460, in the assay on SF-539, in the assay on SK-MEL-2 and in the assay on LOX IMVI was > 100 µM (inactive) each time.
Take `C/C(CN1C(=O)c2ccccc2C1=O)=N\NS(=O)(=O)c1ccc2ccccc2c1`: the GI50 with SN12C was > 100 µM (inactive); in the assay on EKVX it was > 100 µM (inactive); with UACC-62 it was > 100 µM (inactive); with HCT-15 it was above 100 µM; in the assay on IGROV-1, > 100 µM (inactive); with OVCAR-3, > 100 µM (inactive). In addition, the GI50 in the assay on SW-620, in the assay on M14, with KM12, in the assay on CAKI-1, with 786-0 and in the assay with NCI-H23 was > 100 µM (inactive) each time. For the same compound, the GI50 with NCI-H460, with SF-539, with SK-MEL-2 and in the assay with LOX IMVI was > 100 µM (inactive) in each case.
As to `CCOc1ccc(/C=C/c2cc(OC)c(OC)c(OC)c2)cc1`, the GI50 in the assay with SN12C is 4.02 µM (inactive); with EKVX it was > 100 µM (inactive); in the assay on UACC-62 it was 0.385 µM (active); in the assay with HCT-15 it was 0.869 µM; with IGROV-1, 2.19 µM (inactive); in the assay on OVCAR-3, 0.596 µM (active). The GI50 with SW-620 was 0.791 µM (active); in the assay with M14, 0.841 µM (active); in the assay on KM12, 0.411 µM (active); in the assay with CAKI-1 it was 0.564 µM (active); in the assay on 786-0, 3.05 µM (inactive); in the assay on NCI-H23 it was 2.92 µM (inactive). Further, the GI50 with NCI-H460 was 1.05 µM (active); in the assay on SF-539, 0.456 µM (active); in the assay with SK-MEL-2, 1.23 µM (inactive); in the assay with LOX IMVI, 1.59 µM (inactive).
For `CC(C)[C@H](NC(=O)[C@H](C(C)C)N(Cc1ccccc1)Cc1ccccc1)C(=O)N(C)[C@H](C(=O)N1CCC[C@H]1C(=O)N(C)[C@H](C)C(=O)NCc1ccc2c(c1)OCO2)C(C)C` (Bn2Val-V[NMeV]P[dNMeA]-NHPiperonyl), the GI50 in the assay on MDA-N is 12.1 µM (inactive); in the assay on EKVX it was 4.98 µM (inactive); in the assay with UACC-62, 13 µM (inactive); in the assay with HCT-15 it was 3.54 µM; with IGROV-1, 3.95 µM (inactive); in the assay on OVCAR-3 it was 5.01 µM (inactive). For the same compound, the GI50 with SW-620 is 4.49 µM (inactive); with M14, 25.5 µM (inactive); in the assay on MDA-MB-231, 6.56 µM (inactive); in the assay on KM12 it was 4.83 µM (inactive); in the assay with CAKI-1, 19.9 µM (inactive); in the assay with MDA-MB-435, 17.2 µM (inactive). The GI50 is 13.6 µM (inactive) with 786-0; 16.8 µM (inactive) in the assay with NCI-H23; 3.93 µM (inactive) in the assay with NCI-H460; 3.37 µM (inactive) with SF-539; 5.97 µM (inactive) in the assay with SK-MEL-2; 5.9 µM (inactive) in the assay on LOX IMVI.
